In brackets after ≈: the same amount, converted by molar mass. Each block holds one molecule with its values, some of them ahead of it. Square brackets hold non-standard residues; d marks the D form. Ends that are not written are not given here. Peptide text beside a SMILES is read from it.
How the values were obtained:
[1] = tested on: E. coli BW25113; format: cell-based, Escherichia coli; details: BW25113, 2 h
Experimental: The minimal inhibitory concentrations (MIC) were determined at least twice in triplicate using a liquid broth microdilution assay in sterile 96-well plates and a total volume of 100 μL per well. Aqueous peptide solutions were serially 2-fold diluted in 25% MHBII or 33% TSB medium in a volume of 50 µL. An overnight culture was diluted in 25% MHBII or 33% TSB medium to 1.5 × 10^7 CFU/mL, and an aliquot of 50 μL was added to each well. The final cell count in each well was 7.5 × 10^6 CFU/mL. […] The turbidity of each well was measured at a wavelength of 600 nm. The MIC was defined as the lowest peptide concentration where the turbidity was identical to medium only.

[2] = tested on: E. coli Rosetta DE3 pLysS; assay: MIC, liquid broth microdilution; format: cell-based, Escherichia coli; details: 25% MHBII medium, 7.5 × 10^6 CFU/mL, 37 °C, 20 ± 2 h, turbidity 600 nm, at least twice in triplicate
Experimental: The minimal inhibitory concentrations (MIC) were determined at least twice in triplicate using a liquid broth microdilution assay in sterile 96-well plates and a total volume of 100 μL per well. Aqueous peptide solutions were serially 2-fold diluted in 25% MHBII or 33% TSB medium in a volume of 50 µL. An overnight culture was diluted in 25% MHBII or 33% TSB medium to 1.5 × 10^7 CFU/mL, and an aliquot of 50 μL was added to each well. The final cell count in each well was 7.5 × 10^6 CFU/mL. The plates were incubated at 37 °C for 20 ± 2 h. The turbidity of each well was measured at a wavelength of 600 nm. The MIC was defined as the lowest peptide concentration where the turbidity was identical to medium only.

[3] = biological target: BW25113 ribosome extract, ribosomal binding site of Onc112; assay: Fluorescence polarization competition against cf-Onc112 (Ki); set-up: species or system Escherichia coli; details: unlabeled PrAMP against cf-labeled Onc112, calculated from IC50, 95% confidence interval in brackets
Experimental: (§1) E. coli BW25113 and E. coli Rosetta pLysS were cultivated in LB medium and harvested at an OD600 of ~4 by centrifugation (5000× g, 30 min, 4 °C). The cell pellets were washed by resuspension in ribosome preparation buffer (20 mmol/L Hepes-KOH, 6 mmol/L MgCl2, 30 mmol/L NH4Cl, pH 7.6, 4°C) and subsequent centrifugation (5000× g, 30 min, 4 °C). Cell pellets were suspended in ribosome preparation buffer ([…]) containing freshly added 2-mercapotethanol (4 mmol/L). Lysozyme was added to the resuspended cells and incubated on ice for 30 min. The cell suspension was disrupted six times using a FastPrep-24^TM 5G instrument (MP Biomedicals, Solon, OH, USA) with BigPrep 50 mL setting (40 s, 4.0 m/s), incubated with DNase I (5 mL/L) on ice for one hour and centrifuged (16,000× g, 30 min, 4 °C). The cell debris was removed from the supernatant by centrifugation (32,000× g, 60 min, 4 °C), and the supernatant was centrifuged again (165,000× g, 17 h, 4 °C). The pellet was resuspended in ribosome preparation buffer (0.1 mL per g cell pellet) to obtain the 70S ribosome extract and stored at −80 °C. The ribosome concentration was estimated by recording the absorbance at 260 nm (1 AU for a ribosome concentration of 28 nmol/L). The molecular weight of the 70S E. coli ribosome was assumed to be 2.3 MDa.
(§2) Ki was determined for ribosome extracts using cf-labeled and unlabeled peptides in ribosome preparation buffer. Black 384-well plates were prepared as described above. Unlabeled peptides or antibiotics (20 µL, 656 µmol/L) were added and 2-fold serially diluted in 23 wells in ribosome preparation buffer. A ribosome solution was prepared by adjusting the ribosome concentration to ~90% of the upper Kd plateau obtained for the cf-labeled peptide to be studied and added to each well (10 µL). […] The fluorescence polarization was measured on a PARADIGMTM microplate reader in the top read position (λexc = 485 nm, λem = 535 nm) in triplicate on at least two different days. […] Inhibition constants, Ki, were calculated as described by Mathias and Jung.

[4] = tested on: 70S ribosome extract of E. coli BW25113; assay: Fluorescence polarization, Kd of cf-labeled peptides; format: binding, Escherichia coli
Experimental: as §1
(§3) Kd was determined using a ribosome extract and cf-labeled peptides in ribosome preparation buffer. Briefly, black 384-well plates (flat bottom, Greiner Bio-One GmbH) were blocked with casein (0.5%, w/v) in phosphate buffer containing 0.05% (v/v) Tween 20 at 4 °C overnight and washed three times with phosphate buffer. A 2-fold dilution series of the ribosome extract (20 μL per well) in ribosome preparation buffer was prepared in a black 384-well plate (23 dilution steps). The cf-labeled peptide was dissolved in ribosome preparation buffer (20 μL, 40 nmol/L), added to each well, and incubated at 28 ± 1 °C. After 90 min, the fluorescence polarization was measured on a PARADIGMTM microplate reader (Beckman Coulter, Salzburg, Austria) in the top read position (λexc = 485 nm, λem = 535 nm) in triplicate on at least two different days. Data were fitted to a nonlinear, dose–response logistical transition equation [y= y0 + a/(1 + (x/x0)b)] using the Levenberg–Marquardt algorithm, with dissociation constants (Kd) represented by the x0 coefficients (GraphPad Prism for Windows v. 5.02, San Diego, CA, USA).

[5] = tested on: 70S ribosome extract of E. coli Rosetta DE3 pLysS; assay: as above; format: binding, Escherichia coli; details: determined for the cf-labeled peptide, 28 °C, 90 min, 95% confidence interval in brackets, triplicate on at least two days, read-out: Kd, Ros
Experimental: as §1, §3

[6] = biological target: BW25113 ribosome extract, ribosomal binding site of Api137; assay: Fluorescence polarization competition against cf-Api137 (Ki); set-up: species or system Escherichia coli; details: unlabeled PrAMP against cf-labeled Api137, calculated from IC50, 95% confidence interval in brackets
Experimental: as §1, §2

[7] = tested on: 70S ribosome, ribosomal binding site of Api805; assay: Fluorescence polarization competition with cf-Api805; set-up: species or system Escherichia coli; details: Figure S2, twice in triplicate
Experimental: Ki was determined for ribosome extracts using cf-labeled and unlabeled peptides in ribosome preparation buffer. Black 384-well plates were prepared as described above. Unlabeled peptides or antibiotics (20 μL, 656 μmol/L) were added and 2-fold serially diluted in 23 wells in ribosome preparation buffer. […] The fluorescence polarization was measured on a […] microplate reader in the top read position (λexc = 485 nm, λem = 535 nm) in triplicate on at least two different days. […] Inhibition constants, Ki, were calculated as described by Mathias and Jung. page 9: 140 140 120 120 100 100 80 80 60 60 40 40 […]. […]. […] 0 0 -20 -20 10 -2 1 10 2 10 4 10 6 10 -2 1 10 2 10 4 10 6 Pept ide Concent r at ion [ nM] Pept ide Concent r at ion [ nM] 140 140 120 120 100 100 80 80 60 60 40 40 20 Chlor […] ol vs. […] -20 -20 10 -2 1 10 2 10 4 10 6 10 -2 1 10 2 10 4 10 6 Ant ibiot ic Concent r at ion [ nM] Antibiotic Concentration [nM] 140 120 100 80 60 40 […] -20 10 -2 1 10 2 10 4 10 6 Ant ibiot ic Concent r at ion [ nM] Figure S2. […] tested as control in competition with Api137 or erythromycin. Experiments were done twice in triplicates. Error bars show the standard deviation of all six replicates. The horizontal dotted line separates positive and negative ranges on the Y-axis. - S9 - (also on this page, place not known: […]

[8] = biological target: 70S ribosome extract of E. coli BW25113 (E. coli BW25113 (endogenous)); assay: fluorescence polarisation; 2-fold dilution series of the ribosome extract (23 steps) mixed with cf-labeled peptide (20 µL, 40 nmol/L) in ribosome preparation buffer (20 mmol/L Hepes-KOH, 6 mmol/L MgCl2, 30 mmol/L NH4Cl, pH 7.6); 28 ± 1 °C, 90 min; Kd = x0 of a dose-response fit
[9] = biological target: 70S ribosome extract of E. coli Rosetta DE3 pLysS (E. coli Rosetta DE3 pLysS (endogenous)); assay: as above
[10] = biological target: 70S ribosome extract of E. coli BW25113 (E. coli BW25113 (endogenous)); assay: fluorescence polarisation; competition: unlabeled peptide (2-fold series from 656 µmol/L) pre-incubated with BW25113 ribosome extract (28 °C, 90 min), then cf-Api137 (10 µL, 80 nmol/L) added (28 °C, 90 min); ribosome preparation buffer; Ki calculated from IC50
[11] = biological target: 70S ribosome extract of E. coli BW25113 (E. coli BW25113 (endogenous)); assay: fluorescence polarisation; competition: unlabeled peptide (2-fold series from 656 µmol/L) pre-incubated with BW25113 ribosome extract (28 °C, 90 min), then cf-Onc112 (10 µL, 80 nmol/L) added (28 °C, 90 min); ribosome preparation buffer; Ki calculated from IC50

Molecule: CC[C@H](C)[C@H](NC(=O)[C@@H]1CCCN1C(=O)[C@H](CCCNC(=N)N)NC(=O)[C@H](CC(N)=O)NC(=O)[C@H](CC(N)=O)NC(=O)CN)C(=O)N[C@@H](Cc1ccc(O)cc1)C(=O)N[C@H](C(=O)N1CCC[C@H]1C(=O)N[C@@H](CCCNC(=N)N)C(=O)N1CCC[C@H]1C(=O)N[C@@H](CCCNC(=N)N)C(=O)N1CCC[C@H]1C(=O)N1CCC[C@H]1C(=O)N[C@@H](Cc1c[nH]cn1)C(=O)N1CCC[C@H]1C(=O)N[C@@H](CCCNC(=N)N)C(=O)N[C@@H](CC(C)C)C(=O)O)[C@@H](C)CC [Api801] (H-GNNRPIYIPRPRPPHPRL-OH)
MIC, BW [1]: 16 µg/mL (≈ 7.44 µM)
MIC, Ros [2]: 4 µg/mL (≈ 1.86 µM)

Molecule: CC[C@H](C)[C@H](NC(=O)[C@@H](CCCNC(=N)N)NC(=O)[C@H](CCCNC(=N)N)NC(=O)[C@@H]1CCCN1C(=O)[C@@H]1CCCN1C(=O)[C@H](CCCNC(=N)N)NC(=O)[C@@H]1CCCN1C(=O)[C@H](CCCNC(=N)N)NC(=O)[C@@H]1CCCN1C(=O)[C@H](CC(C)C)NC(=O)[C@H](Cc1ccc(O)cc1)NC(=O)[C@@H]1CCCN1C(=O)[C@@H]1CCCN1C(=O)[C@H](CCCCN)NC(=O)[C@H](CC(=O)O)NC(=O)[C@@H](N)C(C)C)C(=O)N[C@@H](Cc1ccc(O)cc1)C(=O)N[C@@H](CC(N)=O)C(=O)N[C@H](CCCNC(=N)N)C(N)=O [Onc112] (H-VDKPPYLPRPRPPR[dR]IYN[dR]-NH2)
Ki [3]: 8 nM
Kd ([4]; determined for the cf-labeled peptide, BW25113 ribosome extract, 28 °C, 90 min, 95% confidence interval in brackets, triplicate on at least two days, read-out: Kd, BW): 27 nM
Kd [5]: 51 nM
MIC, BW [1]: 4 µg/mL (≈ 1.67 µM)
MIC, Ros [2]: 4 µg/mL (≈ 1.67 µM)
Ki [6]: 606 nM

Molecule: O=C(N[C@H](CO)[C@H](O)c1ccc([N+](=O)[O-])cc1)C(Cl)Cl [chloramphenicol]
inhibition of the binding of cf-labeled Api805 [7]: none inhibited

Molecule: CC[C@H]1OC(=O)[C@H](C)[C@@H](O[C@H]2C[C@@](C)(OC)[C@@H](O)[C@H](C)O2)[C@H](C)[C@@H](O[C@@H]2O[C@H](C)C[C@H](N(C)C)[C@H]2O)[C@](C)(O)C[C@@H](C)C(=O)[C@H](C)[C@@H](O)[C@]1(C)O [erythromycin]
inhibition of the binding of cf-labeled Api805 [7]: none inhibited

Molecule: cf-Api88 (peptide)
Kd [8]: 906 nM

Molecule: cf-Api805: Api805 labeled with 5(6)-carboxyfluorescein at the N-terminus ({5(6)‑carboxyfluorescein}-GNNRPIYIPRPRPPHPRPIRV-OH)
Kd values of cf-labeled peptides, in words ([4]; 70S ribosome, refers to Table 2): nanomolar range

Molecule: GNNRPIYIPRPRPPHPRL-OH [Api801]
Ki [10]: 2 nM
Ki [11]: 247 nM

Molecule: VDKPPYLPRPRPPR[dR]IYN[dR]-NH2 [Onc112]
Ki [10]: 606 nM
Ki [11]: 8 nM

Second part, the molecule after the results:

inhibition of the binding of cf-labeled Api805 [7]: none inhibited
Molecule: NC[C@H]1O[C@H](O[C@H]2[C@H](O)[C@@H](O[C@H]3O[C@H](CO)[C@@H](O)[C@H](N)[C@H]3O)[C@H](N)C[C@@H]2N)[C@H](O)[C@@H](O)[C@@H]1O [kanamycin]

Kd [9]: 198 nM
Kd [8]: 382 nM
Molecule: cf-Api137 (peptide)

Kd [9]: 515 nM
Kd [8]: 557 nM
Molecule: {5(6)‑carboxyfluorescein}-GNNRPIYIPRPRPPHPRPIRV-OH [cf-Api805]

Kd [9]: 51 nM
Kd [8]: 27 nM
Molecule: {5(6)‑carboxyfluorescein}-VDKPPYLPRPRPPR[dR]IYN[dR]-NH2 [cf-Onc112]

— paper PMC9025336 (Antibiotics, 2022)
